# From ChEMBL document CHEMBL1909046, “DrugMatrix in vitro pharmacology data”
# Assays:
# [1] = molecular target: T1, Polyunsaturated fatty acid lipoxygenase ALOX15 (Oryctolagus cuniculus, UniProt P12530); assay: biochemical; format: tissue-based, Reticulocytes;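 also: inhibition of 15-lipoxygenase enzyme activity measured with linoleic acid as the substrate; in other assays of this panel Not Active means under 50% inhibition at 10 µM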
# T1 sequence (P12530 whole entry): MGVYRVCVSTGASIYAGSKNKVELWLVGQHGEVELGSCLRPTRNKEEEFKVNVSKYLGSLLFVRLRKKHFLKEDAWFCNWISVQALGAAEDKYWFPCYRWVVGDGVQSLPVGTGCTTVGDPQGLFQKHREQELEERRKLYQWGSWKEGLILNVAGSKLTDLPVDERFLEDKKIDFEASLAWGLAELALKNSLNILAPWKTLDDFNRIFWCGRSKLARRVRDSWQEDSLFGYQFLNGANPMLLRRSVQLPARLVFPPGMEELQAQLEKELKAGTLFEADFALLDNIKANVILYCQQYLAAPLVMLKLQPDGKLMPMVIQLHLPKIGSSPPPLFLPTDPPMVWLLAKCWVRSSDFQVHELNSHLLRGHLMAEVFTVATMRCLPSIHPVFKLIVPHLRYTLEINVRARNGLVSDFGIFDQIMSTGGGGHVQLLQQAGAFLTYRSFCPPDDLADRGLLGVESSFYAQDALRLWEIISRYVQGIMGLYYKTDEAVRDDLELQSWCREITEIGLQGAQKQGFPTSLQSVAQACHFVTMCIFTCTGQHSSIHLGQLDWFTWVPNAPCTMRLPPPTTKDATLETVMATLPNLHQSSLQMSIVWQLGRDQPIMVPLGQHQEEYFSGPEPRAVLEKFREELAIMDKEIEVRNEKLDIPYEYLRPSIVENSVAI
# [2] = molecular target: T2, Nitric oxide synthase, inducible (Mus musculus, UniProt P29477); parameters: species or system Escherichia coli;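 also: inhibition of iNOS enzyme activity measured with L-arginine as substrate; in other assays of this panel Not Active means under 50% inhibition at 10 µM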
# T2 sequence (P29477 whole entry): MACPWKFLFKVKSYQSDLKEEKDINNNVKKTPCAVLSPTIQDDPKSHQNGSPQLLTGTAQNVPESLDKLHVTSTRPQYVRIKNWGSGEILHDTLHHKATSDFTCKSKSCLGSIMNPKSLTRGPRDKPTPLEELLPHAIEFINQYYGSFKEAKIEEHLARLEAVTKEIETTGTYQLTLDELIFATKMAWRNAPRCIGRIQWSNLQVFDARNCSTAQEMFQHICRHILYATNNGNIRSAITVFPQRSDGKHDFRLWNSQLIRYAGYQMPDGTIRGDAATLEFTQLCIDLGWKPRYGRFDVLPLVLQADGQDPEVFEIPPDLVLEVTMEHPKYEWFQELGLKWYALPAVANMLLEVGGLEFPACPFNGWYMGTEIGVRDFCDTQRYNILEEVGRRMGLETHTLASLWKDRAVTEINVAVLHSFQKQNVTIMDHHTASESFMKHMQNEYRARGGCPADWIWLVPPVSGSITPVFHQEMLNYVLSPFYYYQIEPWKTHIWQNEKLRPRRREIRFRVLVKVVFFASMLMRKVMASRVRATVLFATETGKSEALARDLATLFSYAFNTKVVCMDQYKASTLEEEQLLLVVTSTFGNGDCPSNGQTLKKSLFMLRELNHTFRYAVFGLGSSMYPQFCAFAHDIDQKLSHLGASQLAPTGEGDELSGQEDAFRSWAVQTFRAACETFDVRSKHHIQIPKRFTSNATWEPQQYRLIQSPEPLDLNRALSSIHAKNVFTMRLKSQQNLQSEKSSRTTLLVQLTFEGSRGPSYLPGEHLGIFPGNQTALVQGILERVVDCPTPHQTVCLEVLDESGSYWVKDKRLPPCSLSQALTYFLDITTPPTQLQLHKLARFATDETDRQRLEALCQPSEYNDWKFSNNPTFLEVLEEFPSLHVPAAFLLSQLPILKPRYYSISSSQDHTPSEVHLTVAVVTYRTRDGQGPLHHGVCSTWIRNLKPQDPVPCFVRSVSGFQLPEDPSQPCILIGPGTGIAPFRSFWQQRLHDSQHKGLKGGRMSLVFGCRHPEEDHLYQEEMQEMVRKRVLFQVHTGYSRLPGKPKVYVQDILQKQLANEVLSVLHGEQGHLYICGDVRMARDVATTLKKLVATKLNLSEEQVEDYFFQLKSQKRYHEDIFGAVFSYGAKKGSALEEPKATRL
# [3] = molecular target: Mu-type opioid receptor (Homo sapiens, UniProt P35372); assay: DRUGMATRIX: Opiate mu (OP3, MOP) radioligand binding (ligand: [3H] Diprenorphine); format: cell membranes, CHO-K1, Membrane; conditions: Not Active = under 50% inhibition at 10 µM
# [4] = molecular target: Tyrosine-protein kinase Lck (Homo sapiens, UniProt P06239); assay: DRUGMATRIX: Protein Tyrosine Kinase, LCK enzyme inhibition (substrate: Poly(Glu:Tyr)); format: cell-based, Insect cells; conditions: insect cells; Not Active = under 50% inhibition at 10 µM
# [5] = molecular target: T3, Cytochrome P450 2A6 (Homo sapiens, UniProt P11509); conditions: bti-tn-5b1-4; also: in other assays of this panel Not Active means under 50% inhibition at 10 µM
# T3 sequence (P11509 whole entry): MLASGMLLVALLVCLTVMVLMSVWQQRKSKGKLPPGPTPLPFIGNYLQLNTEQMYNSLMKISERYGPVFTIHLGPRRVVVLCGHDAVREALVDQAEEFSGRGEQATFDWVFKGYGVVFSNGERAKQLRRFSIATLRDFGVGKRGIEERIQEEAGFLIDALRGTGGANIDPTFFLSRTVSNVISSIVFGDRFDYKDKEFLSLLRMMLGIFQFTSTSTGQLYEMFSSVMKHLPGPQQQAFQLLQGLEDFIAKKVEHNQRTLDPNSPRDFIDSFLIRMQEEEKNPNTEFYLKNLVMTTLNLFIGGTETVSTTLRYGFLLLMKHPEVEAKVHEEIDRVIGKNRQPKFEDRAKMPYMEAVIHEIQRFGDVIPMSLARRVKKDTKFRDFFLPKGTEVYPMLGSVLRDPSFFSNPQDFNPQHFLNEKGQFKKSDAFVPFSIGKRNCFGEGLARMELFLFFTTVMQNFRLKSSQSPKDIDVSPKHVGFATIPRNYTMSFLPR
# [6] = molecular target: Cytochrome P450 2C9 (Homo sapiens, UniProt P11712); conditions: bti-tn-5b1-4; also: in other assays of this panel Not Active means under 50% inhibition at 10 µM
# Cytochrome P450 2C9, sequence (P11712 whole entry): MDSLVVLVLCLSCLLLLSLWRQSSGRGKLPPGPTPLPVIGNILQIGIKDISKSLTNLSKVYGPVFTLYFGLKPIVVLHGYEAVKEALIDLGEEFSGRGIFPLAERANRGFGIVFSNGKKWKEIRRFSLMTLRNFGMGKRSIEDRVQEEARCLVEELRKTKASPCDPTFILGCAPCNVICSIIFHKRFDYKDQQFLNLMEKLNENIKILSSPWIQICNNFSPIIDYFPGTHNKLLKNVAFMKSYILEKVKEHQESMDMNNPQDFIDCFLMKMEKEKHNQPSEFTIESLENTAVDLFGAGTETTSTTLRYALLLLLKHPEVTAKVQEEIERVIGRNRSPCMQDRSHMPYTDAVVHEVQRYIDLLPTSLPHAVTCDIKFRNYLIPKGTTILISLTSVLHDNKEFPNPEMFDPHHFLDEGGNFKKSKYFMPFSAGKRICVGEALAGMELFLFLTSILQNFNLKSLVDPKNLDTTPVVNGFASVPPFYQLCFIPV
# Tyrosine-protein kinase Lck, sequence (P06239 whole entry): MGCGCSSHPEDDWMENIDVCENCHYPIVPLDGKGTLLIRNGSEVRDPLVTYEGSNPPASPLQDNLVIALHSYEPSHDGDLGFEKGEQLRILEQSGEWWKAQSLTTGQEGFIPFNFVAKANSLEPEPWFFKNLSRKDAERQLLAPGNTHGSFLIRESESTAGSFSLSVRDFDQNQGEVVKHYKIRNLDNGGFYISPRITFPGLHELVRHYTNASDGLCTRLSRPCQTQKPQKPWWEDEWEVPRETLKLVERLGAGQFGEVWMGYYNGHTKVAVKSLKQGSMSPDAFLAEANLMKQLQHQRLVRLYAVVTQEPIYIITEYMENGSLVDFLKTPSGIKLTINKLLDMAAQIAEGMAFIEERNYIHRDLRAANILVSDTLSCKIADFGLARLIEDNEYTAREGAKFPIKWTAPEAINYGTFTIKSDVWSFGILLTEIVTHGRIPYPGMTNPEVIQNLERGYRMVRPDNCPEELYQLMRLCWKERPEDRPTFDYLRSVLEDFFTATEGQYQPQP
# Mu-type opioid receptor, sequence (P35372 whole entry): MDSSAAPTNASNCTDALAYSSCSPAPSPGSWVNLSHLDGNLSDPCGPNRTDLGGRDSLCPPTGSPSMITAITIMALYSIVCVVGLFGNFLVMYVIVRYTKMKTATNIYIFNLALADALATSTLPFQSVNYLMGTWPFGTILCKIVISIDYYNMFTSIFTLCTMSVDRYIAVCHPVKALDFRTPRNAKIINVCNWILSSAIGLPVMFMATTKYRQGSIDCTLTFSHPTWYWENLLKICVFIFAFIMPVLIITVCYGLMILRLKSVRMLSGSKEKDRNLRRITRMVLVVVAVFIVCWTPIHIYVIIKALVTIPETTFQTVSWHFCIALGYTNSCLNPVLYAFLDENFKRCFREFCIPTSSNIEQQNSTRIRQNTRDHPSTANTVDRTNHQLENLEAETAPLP
Compound,IC50 ([1]; reticulocytes),IC50 [2],IC50 ([3]; cho-k1),IC50 [4],IC50 [5],Ki [5],IC50 [6],Ki [6],IC50 ([1]; read-out: IC50) [µM],IC50 ([3]; read-out: IC50) [µM],Ki ([3]; read-out: Ki) [µM],Ki ([1]; reticulocytes),Ki [2],Ki [4]
O=C(N[C@H](CO)[C@H](O)c1ccc([N+](=O)[O-])cc1)C(Cl)Cl [CHLORAMPHENICOL],Not Active,Not Active,Not Active,Not Active,,,,,,,,,,
Cn1c(=O)c2c(ncn2CC2OCCO2)n(C)c1=O [DOXOFYLLINE],Not Active,Not Active,Not Active,Not Active,Not Active,Not Active,Not Active,Not Active,,,,,,
CCC1=C[C@@H]2CN(C1)Cc1c([nH]c3ccccc13)[C@@](C(=O)OC)(c1cc3c(cc1OC)N(C)[C@H]1[C@@](O)(C(=O)OC)[C@H](OC(C)=O)[C@]4(CC)C=CCN5CC[C@]31[C@@H]54)C2 [VINORELBINE],Not Active,Not Active,Not Active,Not Active,Not Active,Not Active,Not Active,Not Active,,,,,,
CC(C(=O)O)c1cccc(C(=O)c2ccccc2)c1 (centres undefined) [KETOPROFEN],Not Active,Not Active,Not Active,Not Active,Not Active,Not Active,Not Active,Not Active,,,,,,
O=NN(CCCl)C(=O)NCCCl [CARMUSTINE],Not Active,Not Active,Not Active,Not Active,,,,,,,,,,
NC(=O)NO [HYDROXYUREA],Not Active,Not Active,Not Active,Not Active,,,,,,,,,,
C[C@@]12C(=O)OC(=O)[C@]1(C)[C@H]1CC[C@@H]2O1 [CANTHARIDIN],Not Active,Not Active,,Not Active,Not Active,Not Active,Not Active,Not Active,,,,,,
C/C=C/C[C@@H](C)[C@@H](O)[C@H]1C(=O)N[C@@H](CC)C(=O)N(C)CC(=O)N(C)[C@@H](CC(C)C)C(=O)N[C@@H](C(C)C)C(=O)N(C)[C@@H](CC(C)C)C(=O)N[C@@H](C)C(=O)N[C@H](C)C(=O)N(C)[C@@H](CC(C)C)C(=O)N(C)[C@@H](CC(C)C)C(=O)N(C)[C@@H](C(C)C)C(=O)N1C [CYCLOSPORINE],Not Active,Not Active,Not Active,Not Active,,,,,,,,,,
CCOC(=O)C(C)(C)Oc1ccc(Cl)cc1 [CLOFIBRATE],Not Active,Not Active,Not Active,Not Active,Not Active,Not Active,,,,,,,,
COC(=O)C1=C(C)NC(C)=C(C(=O)OCC(C)C)C1c1ccccc1[N+](=O)[O-] (centres undefined) [NISOLDIPINE],Not Active,Not Active,Not Active,Not Active,Not Active,Not Active,,,,,,,,
C[C@@H]1C[C@@H]([C@H](O)CC2CC(=O)NC(=O)C2)C(=O)[C@@H](C)C1 [CYCLOHEXIMIDE],Not Active,Not Active,,Not Active,,,,,,,,,,
Cc1cc(=O)n(-c2ccccc2)n1C [ANTIPYRINE],Not Active,Not Active,Not Active,Not Active,Not Active,Not Active,,,,,,,,
Cc1ccccc1C(=O)N1CCC(Cc2ccccc2)CC1,Not Active,Not Active,Not Active,Not Active,Not Active,Not Active,,,,,,,,
CCCC(=O)Nc1ccc(OCC(O)CNC(C)C)c(C(C)=O)c1 (centres undefined) [ACEBUTOLOL],Not Active,Not Active,Not Active,Not Active,Not Active,Not Active,,,,,,,,
Oc1ccc(OCc2ccccc2)cc1 [MONOBENZONE],,Not Active,Not Active,Not Active,Not Active,Not Active,,,4.89,,,,,
CN(C)c1ccc(C(=C2C=CC(=[N+](C)C)C=C2)c2ccc(N(C)C)cc2)cc1.[Cl-] [GENTIAN VIOLET],Not Active,Not Active,,Not Active,Not Active,Not Active,,,,2.15,0.871,,,
COP(=O)(OC)OC=C(Cl)Cl [DICHLORVOS],Not Active,Not Active,,Not Active,Not Active,Not Active,Not Active,Not Active,,,,,,
CADMIUM DICHLORIDE,Not Active,Not Active,,Not Active,Not Active,Not Active,Not Active,Not Active,,,,Not Active,Not Active,Not Active
CCn1cc(C(=O)O)c(=O)c2cc(F)c(N3CCN(C)CC3)cc21 [PEFLOXACIN],Not Active,Not Active,Not Active,Not Active,,,,,,,,,,
S=C=Nc1cccc2ccccc12 [1-NAPHTHYLISOTHIOCYANATE],Not Active,Not Active,,Not Active,Not Active,Not Active,Not Active,Not Active,,,,,,
CCOC(=O)C1=C(C)NC(C)=C(C(=O)OC)C1c1cccc([N+](=O)[O-])c1 (centres undefined) [NITRENDIPINE],Not Active,Not Active,Not Active,Not Active,Not Active,Not Active,,,,,,,,
CC1=C(C(=O)O)N2C(=O)[C@@H](NC(=O)[C@H](N)c3ccccc3)[C@H]2SC1 [CEPHALEXIN ANHYDROUS],Not Active,Not Active,Not Active,Not Active,Not Active,Not Active,,,,,,,,
CN(C)/N=N/c1[nH]cnc1C(N)=O [DACARBAZINE],Not Active,Not Active,Not Active,Not Active,Not Active,Not Active,,,,,,,,
COc1ccccc1C(=O)N1CCC(Cc2ccccc2)CC1,Not Active,Not Active,Not Active,Not Active,Not Active,Not Active,,,,,,,,
COc1ccc2cc([C@H](C)C(=O)O)ccc2c1 [NAPROXEN],Not Active,Not Active,Not Active,Not Active,,,,,,,,,,
